These results are taken from patent EP1166784B1, “INHIBITION OF VASCULAR RESTENOSIS AFTER ANGIOPLASTY” (Meiji Seika Kaisha, Ltd., priority 1999, dated 2000).

Data set [1] deals with balloon-injured site of the abdominal aorta blood vessel. Put plainly: PDT treatment in rabbit model with arterial injury (balloon catheter), pathological study (Example 1). It counts as in vivo. The following applies: 2.5 mg/kg i.v., laser 664 nm, 50 or 100 J/cm^2, optical fiber in inflated 2F balloon catheter. As to the method:
Mono-L-aspartylchlorin e6 tetrasodium salt (NPe6) was intravenously administered at a dose of 2.5 mg/kg to a rabbit weighing about 4 kg. A commercially available 2F balloon catheter was immediately then inserted through the femoral artery into the abdominal aorta of rabbit. Thereafter, there are repeated operations of drawing out from the blood vessel the balloon catheter with the inflated balloon, inserting the balloon catheter again into the blood vessel, and drawing out the balloon catheter with the inflated balloon, whereby a rabbit model with an arterial injury was produced. This method for producing the rabbit model having the arterial injury at the blood vessel inner wall was in accordance with the method of Hsiang et al. (see Ann. Vasc. Surg., Vol.9, p.80-86, 1995). At the end of 3 hours after the administration of NPe6, an optical fiber for irradiation of laser (made of an acrylic polymer filament having an external diameter of 0.5 mm and provided with the emitter part of 15mm in length) was inserted into the hollow hole of the 2F balloon catheter which had been inserted in and kept remained at the balloon-injured site of the abdominal aorta blood vessel. The balloon of the catheter was then inflated. Laser light of 664 nm wavelength was passed into and transmitted through the optical fiber to make the laser light to irradiate the abdominal artery at the balloon-injured site, and thereby to carry out the PDT treatment of said site at a laser fluence of 50 or 100 J/cm^2. The laser (of the wavelength of 664 nm) used was emitted from a laser-generating source of semi-conductor type known for PDT. At the respective ends of four days, two weeks and four weeks after the above PDT treatment so made, the site having received the PDT treatment was pathologically studied.

In data set [2] the test system is intimal thickening induced at the balloon-intervented and injured site of blood vessel. In words: Suppressive effect of PDT treatment on intimal thickening in rabbit model with arterial injury, image analysis of neo-intima and tunica media areas (Example 2). The following applies: 2.5 mg/kg i.v., laser 664 nm 3 hours after administration, two weeks after PDT; for Inhibition rate (%): versus untreated group. It counts as in vivo. As to the method:
Mono-L-aspartylchlorin e6 tetrasodium salt was intravenously administered at a dose of 2.5 mg/kg to three rabbits each weighing about 4 kg. […] The neo-intima (9) had newly been produced from the inner side of the tunica media (8) due to the injury as induced by the balloon-intervention. At the end of three hours after the administration of mono-L-aspartylchlorin e6 tetrasodium salt, a device comprising an optical fiber for the irradiation of laser was inserted in the blood vessel of rabbit having the intimal thickening, to arrive at the balloon-injured site of the blood vessel. In order to estimate in comparison the achievable suppressive effects of the PDT treatments against the vascular restenosis, the above test procedures were conducted with employing two different types of the laser-irradiating devices comprising the optical fiber for the irradiation of laser, a first one type of which two different devices was such a laser-irradiating device that comprised an optical fiber as integrated with a balloon catheter and that is shown in Figure 1 of the appended drawing. The other type of the laser-irradiating device employed was comprising simply the conventional type of cylindrical optical fiber. In the tests, either one of these two different types of the laser-irradiating devices containing an optical fiber was inserted into the abdominal aorta under test. Under roentgenoscopy, an X-ray-shielding marker which had been provided in the laser-irradiating optical fiber so inserted was observed as a guide. This guide was used so that the position of the optical fiber device as inserted could be adjusted so as to be located in a position optimal to make the laser to irradiate selectively just the balloon-injured site of the abdominal aorta under test. Then, the irradiation of the laser through said optical fiber was carried out at a laser fluence of 50 or 100 J/cm^2 by means of a semiconductor generator for generating the laser of a wavelength of 664 nm. […] From the photographies of showing the traverse cross-section of histopathologically stained test specimens as collected from the above PDT-treated site of the blood vessel, the area of the tunica media and the area of the neo-intima of the test specimens of the blood vessel under test were measured by an image analyzer. The ratio of the area of the tunica media to the area of the neo-intima of the blood vessel specimens was calculated. […]

Where [3] appears, read: conventional type of cylindrical optical fiber device, 100 J/cm^2.
Where [4] appears, read: optical fiber device integrated with the balloon catheter, 50 J/cm^2.

As to `C=Cc1c(C)c2cc3nc(c(CC(=O)N[C@@H](CC(=O)[O-])C(=O)[O-])c4[nH]c(cc5nc(cc1[nH]2)C(C)=C5CC)c(C)c4C(=O)[O-])[C@@H](CCC(=O)[O-])[C@@H]3C.[Na+].[Na+].[Na+].[Na+]` [NPe6, Mono-L-aspartylchlorin e6 tetrasodium salt], in data set [1] (2 and 4 weeks after PDT), the “injuries in the regions of the blood vessel participating in the entire construction of the blood vessel (pathological findings)” value is on record as “no injuries were developed” and the “intimal thickening as produced by the vascular neo-intima formed at the PDT-treated site (pathological findings)” value is “inhibited”. The “cells of the tunica media of the blood vessel at the PDT-treated site (pathological findings)” value in data set [1] (four days after PDT) is given as “destroyed in a broad region of ranging from the inner wall side towards the outer wall side of the blood vessel”. In data set [2] (setting [3]), the “Ratio of area of neointima to area of tunica media in blood vessel” value was 0.87±0.37 and the “Inhibition rate (%)” value turned out to be 28.7%. In data set [2] (setting [4]), the “Ratio of area of neointima to area of tunica media in blood vessel” value was 0.68±0.21 and the “Inhibition rate (%)” value amounted to 44.3%.
